Entries after “also recorded” stand apart in the source; their conditions may differ.
B1: OP-1: osteogenic protein-1, a tissue morphogenic protein of the TGF-β superfamily; mature human OP-1 is SEQ ID No. 4 (protein, listed as Homo sapiens)
chain: CKKHELYVSFRDLGWQDWIIAPEGYAAYYCEGECAFPLNSYMNATNHAIVQTLVHFINPETVPKPCCAPTQLNAISVLYFDDSSNVILKKYRNMVVRACGCH

Experiments:
ROS cells = assay: ROS cell based alkaline phosphatase bioassay; parameters: species or system rat; details: for % increase in OP-1 response relative to the absence of peptide: OP-1 1.33 nM
Procedure: In a first series of experiments, increasing concentrations of peptides F2-2 (FIG. 9A), F2-3 (FIG. 9B), Hn-2 (FIG. 9C) and Hc-2 (FIG. 9D) were added to ROS cells either alone (open bars) or in combination with 40 ng/ml soluble OP-1 (filled bars) and their effect on alkaline phosphatase activity measured. Soluble OP-1 is the form of OP-1 in which the pro-domain is still attached to the mature portion of OP-1 (see WO 94/03600). A basal alkaline phosphatase activity is shown by the line and represents the alkaline phosphatase activity of cells incubated in the absence of both soluble OP-1 and peptide.
(§1) Assay of peptides: The receptor-binding activities of OP-1 synthetic peptides were determined by a radio-ligand receptor assay using ^125I-labeled OP-1 as ligand, and an OP-1 receptor-enriched plasma membrane fraction of ROS cells. The assay is based on competition between radiolabeled OP-1 and unlabeled OP-1 or peptide for binding to membrane-bound receptor. A well characterized ROS cell based in vitro bio-assay was used to examine the effects of OP-1 peptides on basal as well as OP-1 induced cellular alkaline phosphatase activity.
i. ROS Cell Based Alkaline Phosphatase Assay: OP-1 synthetic peptides that bind OP-1 receptors are further analyzed by in vitro bioassay. This allows defining the role of OP-1 peptides at the receptor-binding site. Some of the OP-1 peptides that effectively interact with receptors could inhibit OP-1 induced target cell responsiveness, thereby acting as functional antagonists. Alternatively, they may mimic OP-1 functions inducing alkaline phosphatase activity in ROS cells. Creative BioMolecules has developed and fully validated ROS cell in vitro assay for OP-1. An assay procedure as described earlier is essentially followed to determine the biological activities of OP-1 peptides. In a typical experiment, rat Osteosarcoma (17/2.8) cells are plated in 96 well plates (3.0×10^4 cells/well) and incubated overnight at 37° C. in 5-6% CO2 incubator. Next day, the plates are examined to make sure that cells are healthy & confluent. Cells are treated with increasing concentrations of OP-1 standard (1-10,000 ng/ml) or OP-1 synthetic peptides (0.02-200 μM) alone or with OP-1 standard prepared in medium containing 1% FBS and incubated for 2 days at 37° C. in 5-6% CO2 incubator. The cellular content of alkaline phosphatase activity is determined by the method of Reddi and Huggins. Enzyme estimations are routinely carried out in 96 well plates. Following removal of culture medium, cells are washed with pre-warmed PBS (150 μl) and further incubated in 100 ul of pre-warmed 1% Triton X-100 for 30 minutes at 37 C. Plates are centrifuged for 10 minutes at full speed, and recovered samples (each 15 μl) are assayed for enzyme activity by adding 90 ul p-nitrophenyl phosphate (Sigma) as a substrate in 0.05 M glycine-NaOH buffer, pH 9.3 and incubating for 20 minutes at 37° C. The reaction is stopped by adding 75 μl of 0.2 N NaOH/well and absorbance at 405/490 nm is measured on a Dynatech MR 700 plate reader. Results are expressed as concentration of peptide inhibitor (with antagonist activity) required to give 50% inhibition of maximum response to OP-1 standard. On the other hand, the activities of peptides that stimulate cell responsiveness (with agonist activity) are expressed relative to OP-1 standard. FIG. 23 illustrates the dose-related effects of OP-1 preparations on stimulation of alkaline phosphatase activity as determined in ROS cell based in vitro assay.

[1] = system: OP-1 receptor-enriched plasma membrane fraction of ROS cells; assay: Radioligand receptor assay: displacement of 125I-labeled OP-1 from ROS cell plasma membranes; format: binding, rat
Procedure: In a second series of experiments, the ability of unlabeled soluble OP-1 and unlabeled peptides F1-2, F2-2, F2-3, H-n2 and H-c2 to displace ^125I labeled soluble OP-1 from ROS cell membranes was measured. The activities of peptides F2-2 and F2-3 relative to soluble OP-1 are shown in FIG. 10A, and the activities of peptides Fi-2, H-n2 and H-c2 relative to soluble OP-1 are shown in FIG. 10B. OP-1 receptor-enriched plasma membranes of ROS cells were incubated for 20 hrs at 4° C. with ^125I-labeled soluble OP-1 and unlabeled peptide. Receptor bound material was separated from unbound material by centrifugation at 39,500×g. The resulting pellet was harvested and washed with 50 mM HEPES buffer, pH 7.4 containing 5 mM MgCl2 and 1 mM CaCl2 Radioactivity remaining in the pellet was determined by means of a gamma counter.
as §1
i. Radio-receptor Assay: The receptor-binding activities of various OP-1 synthetic peptides can be determined by an equilibrium displacement binding isotherm assay using ^125I-labeled OP-1 as ligand and OP-1 receptor-enriched plasma membrane fraction of ROS cells. Highly purified OP-1 can be radioiodinated to a specific activity of 70-78 μCi/ug by a modified procedure of lactoperoxidase method. The percent bindability of radioiodinated OP-1 to excess receptor is 30-37%. Plasma membranes enriched with OP-1 receptors from ROS cells can be isolated as is known in the art. […] In a typical assay, fixed amounts of ^125I-labeled sol. OP-1 (˜80,000 cpm) are incubated with fixed amount of receptor-enriched plasma membrane fraction in the presence (5 μg, for non-specific binding) or absence of excess unlabeled OP-1 (for total binding). Displacement curves are generated with increasing concentrations of OP-1 peptide (0.032-50 μM) or OP-1 standard preparation (5-2000 ng). The assay incubations are carried out in a reaction volume of 300 μl with shaking for 22 hrs. at 4° C. Separation of bound and free ^125I-labeled OP-1 is by centrifugation (39,500×g, 30 minutes). The supernatants are aspirated and pellets are washed before counting in a gamma counter (Packard Instr., Downers Grove, Ill.). The concentration of OP-1 peptide required to give 50% inhibition of total specific binding of ^125I-labeled OP-1 (ED50) is calculated from competitive data.

Molecule | behaviour in the alkaline phosphatase assay (agonist/antagonist) (ROS cells; Example 2, alone or with 40 ng/ml soluble OP-1) | effect on basal cell responsiveness (alkaline phosphatase activity) (ROS cells; Example 3, peptide alone, no OP-1) | effect on OP-1 induced cell responsiveness (agonist/antagonist behaviour) (ROS cells; Example 3, peptide together with OP-1) | peptide concentrations at which OP-1 induced responsiveness is potentiated (ROS cells; Example 3, with OP-1) | overall judgement of activity (lead peptides) (ROS cells; Example 3 summary, antagonistic (H-C2) and modulating (F2-3) activity) | % increase in OP-1 response relative to the absence of peptide (ROS cells; peptide 0.01 (unit printed ELM), FIG. 19) | % increase in OP-1 response relative to the absence of peptide (ROS cells; peptide 0.1 (unit printed ELM), FIG. 19) | % increase in OP-1 response relative to the absence of peptide (ROS cells; peptide 1 ELM (so in the source), FIG. 19) | increase of alkaline phosphatase activity relative to soluble OP-1 alone (ROS cells; peptide about 0.01 μM with 40 ng/ml soluble OP-1, FIG. 9B) | effect on basal alkaline phosphatase level (ROS cells; peptide alone, about 0.01 μM, Example 2, FIG. 9B) | ability to displace 125I-labeled soluble OP-1 from ROS cell membranes ([1]; Example 2, FIGS. 10A and 10B) | effect on binding of 125I-labeled OP-1 to the receptor ([1]; Example 3) | level of OP-1 response in the absence of peptide (ROS cells; FIG. 19, sub-maximal OP-1 (1.33 nM)) | affinity (Ka) of OP-1 binding sites ([1]; single class of binding sites in ROS cell plasma membrane preparations)
F2-3: SEQ ID No. 19; 16 residues, finger 2 tip 11-residue loop with 5-residue C-terminal extension (CYFDDSSNVICKKYRS; listed as Homo sapiens) | weak OP-1 agonists | no significant effect | agonistic manner; also recorded: potentiating the cell responsiveness to OP-1 | 0.01 to 1 µM | highly active | 53% | 54% | 48% | about 20% | increase the basal alkaline phosphatase level | able to completely displace | effectively competed |  | 
B1 |  |  |  |  |  |  |  |  |  |  |  |  | approximately 60 % of maximum | 4.38e+09 M⁻¹

Reference: patent US20030185792A1, “Morphogen analogs of bone morphogenic proteins” (Curis, Inc., priority 1996, published 2003)
